Measured values as given in PubChem BioAssay AID449750 (Broad Institute, 2010).
The source made the active and inactive calls. The rule behind the calls is not given here.

Experiment: non-covalent RecA intein splicing inhibitors, dose response, biochemical, cell-free, fluorescence, secondary screen (AID 449750)

| Structure (SMILES) | AC50 |
| --- | --- |
| CCOc1cc(/C=C(\C#N)C(=O)Nc2cccc(C(=O)O)c2)cc(Br)c1OC(=O)c1ccc(OC)cc1 | 8.34 µM |
| Cc1ccc(S(=O)(=O)/N=C2\C=C(Nc3cccc(C(=O)O)c3)C(=O)c3ccccc32)c(C)c1 | > 38 µM (inactive) |
| O=[N+]([O-])C(/C=C(\Cl)[N+](=O)[O-])=C1N(Cc2ccc(Cl)nc2)CCN1Cc1ccc(Cl)nc1 | > 38 µM (inactive) |
| CC1=NN(c2ccc(C)cc2C)C(=O)C1C(c1ccccc1)C1C(=O)N(c2ccc(C)cc2C)N=C1C (stereo not drawn) | 3.04 µM |
| CCc1oc2ccccc2c1C(=O)c1cc(Br)c(O)c(Br)c1 | 9.46 µM |
| COc1cc(C(c2c(C)[nH][nH]c2=O)c2c(C)[nH][nH]c2=O)ccc1OCc1ccc([N+](=O)[O-])cc1 | 6.41 µM |
| COC(=O)c1cc(NC(=O)Nc2ccccc2OC)cc(C(=O)OC)c1 | > 38 µM (inactive) |
| Cc1ccc(N(NC(=O)C(O)(c2ccccc2)c2ccccc2)C(=O)CCl)cc1 | 1.57 µM |
| CC(C)Cc1ccc(-c2cc(=O)[nH][nH]2)cc1 | 13.1 µM |
| O=C(O)/C=C/C(=O)Nc1ccc(SC(F)(F)C(F)(F)C(F)(F)F)cc1 | 7.99 µM |
| O=C(NC1=C(Nc2ccc(F)cc2)C(=O)c2ccccc2C1=O)c1ccc(Cl)cc1 | 13.6 µM |
| COc1ccc(-c2cc(C#N)nc(Cl)n2)cc1 | > 38 µM (inactive) |
| O=C1C=Cc2ccccc2C1=O | 14.9 µM |
| Cn1nc([N+](=O)[O-])nc1Sc1nnc(-c2ccccc2)o1 | > 38 µM (inactive) |
| COc1ccc(CN2CCNC(=O)C2CC(=O)N(C)Cc2ccncn2)c(OC)c1 (stereo not drawn) | > 38 µM (inactive) |
| COc1cc(/C=C2/C(=O)N(c3ccc([N+](=O)[O-])cc3)N=C2N2CCOCC2)ccc1O | 31.5 µM |
| NC1=NN(c2cccc(C(=O)O)c2)C(=O)C1 | 29.4 µM |
| CN1C(=O)/C(=C/c2ccc(-c3ccccc3[N+](=O)[O-])o2)SC1=Nc1ccc(Cl)c(C(=O)O)c1 | 17.1 µM |
| O=C(CCl)NN=C(c1ccccc1)c1ccccc1 | 6.37 µM |
| O=[N+]([O-])c1ccc(N2CCOCC2)c2ccncc12 | > 38 µM (inactive) |
| COc1ccc(OC)c(NC(=O)Cc2ccc(NC3=NC4CS(=O)(=O)CC4S3)cc2)c1 (stereo not drawn) | > 38 µM (inactive) |
| Cc1[nH]nc2c1C1(CCN(C(=O)c3ccccc3)CC1)C(C#N)=C(N)O2 | > 38 µM (inactive) |
| N#Cc1nccnc1S(=O)(=O)c1cccs1 | > 38 µM (inactive) |
| CC1(N2CCOCC2)CC2(O)C(=[N+]1[O-])CCc1nonc12 (stereo not drawn) | 36.5 µM |
| COc1ccc(N2C(=O)C(Cl)=C(N3CCN(Cc4ccccc4)CC3)C2=O)cc1 | > 38 µM (inactive) |
| COC(=O)CN1C(c2ccc(Cl)cc2)=Nc2ccc(Cl)cc2C1c1ccccc1 (stereo not drawn) | 5.48 µM |

| Structure (SMILES) | AC50 |
| --- | --- |
| COc1cccc(C(c2c(C)[nH]n(-c3ccccc3)c2=O)c2c(C)[nH]n(-c3ccccc3)c2=O)c1OC | 2.19 µM |
| Cc1ccc(C(c2c(C)[nH][nH]c2=O)c2c(C)[nH][nH]c2=O)cc1 | 8.37 µM |
| O=C(C1=C(c2ccccc2)C(=O)c2ccccc2C1=O)c1ccccc1 | 3.45 µM |
| CC(=O)Oc1ccc2c(=O)oc(-c3ccccc3C)nc2c1 | > 38 µM (inactive) |
| COc1ccc(OC)c(C2C(C#N)=C(N)Oc3c2c(C)nn3-c2ccc(C)cc2)c1 (stereo not drawn) | 31.1 µM |
| CCc1[nH]nc2c1C(Cc1ccccc1)C(C#N)=C(N)O2 (stereo not drawn) | > 38 µM (inactive) |
| Cc1ccc2c(c1)Oc1ccc(NC(=O)CCl)cc1C(=O)N2 | 6.94 µM |
| CC(C)CC(NC(=O)CCl)c1ccccc1 (stereo not drawn) | 5.47 µM |
| C/C(=N/NC(=O)Cc1cc(=O)[nH][nH]1)c1ccc([N+](=O)[O-])cc1 | 21.5 µM |
| CCCCCCCCCCCCCCCC[N+](C)(C)CC | 10.9 µM |
| Cc1[nH][nH]c(=O)c1C(c1ccc(-c2ccc(Cl)c(Cl)c2)o1)c1c(C)[nH][nH]c1=O | 3.11 µM |
| CCCCOc1ccc(C2C3CN(C(=O)OCC)CC=C3C(C#N)=C(N)C2(C#N)C#N)cc1OC (stereo not drawn) | > 38 µM (inactive) |
| Cc1[nH]nc2c1C1(CCOCC1)C(C#N)=C(N)O2 | > 38 µM (inactive) |
| COc1cccc(-c2[nH]nc3c2C(c2ccsc2)C(C#N)=C(N)O3)c1 (stereo not drawn) | 5.11 µM |
| O=C(O)COc1ccccc1C(Nc1cccnc1)c1cc(Cl)c2cccnc2c1O (stereo not drawn) | 6.01 µM |
| O=C(O)CN1C(=O)/C(=C\c2cccc(OCc3ccc(Cl)cc3Cl)c2)SC1=S | 6.45 µM |
| COc1cc(/C=C2\C(=O)N(c3ccc(S(N)(=O)=O)cc3)N=C2C)ccc1OC(=O)c1ccco1 | 21 µM |
| COc1cccc(C(=O)O/N=C(\N)c2ccc([N+](=O)[O-])cc2)c1OC | > 38 µM (inactive) |
| Cc1[nH][nH]c(=O)c1C(c1ccc(-c2cccc(Cl)c2)o1)c1c(C)[nH][nH]c1=O | > 38 µM (inactive) |
| CS(=O)(=O)C1=NN2C(=N)/C(=C\c3ccc(OC(=O)c4ccco4)cc3)C(=O)N=C2S1 | > 38 µM (inactive) |
| O=C1NC(c2ccc(-c3ccccc3[N+](=O)[O-])o2)C(C(=O)c2ccc(F)cc2)C(O)(C(F)(F)F)N1 (stereo not drawn) | 34.4 µM |
| CCOC(=O)c1cnc(N)nc1C(F)(F)F | > 38 µM (inactive) |
| O=C(Nc1ccccc1)c1nnsc1S(=O)c1ccc(Cl)cc1 (stereo not drawn) | > 38 µM (inactive) |
| COc1cc(C(c2c(C)[nH][nH]c2=O)c2c(C)[nH][nH]c2=O)cc(OC)c1OC | 11.8 µM |
| CCOc1cc(C(c2c(C)[nH][nH]c2=O)c2c(C)[nH][nH]c2=O)cc(Cl)c1O | > 38 µM (inactive) |
| O=c1[nH]c2ccccc2n2c(-c3ccccc3)nnc12 | 22.5 µM |

| Structure (SMILES) | AC50 |
| --- | --- |
| CCCCCCCCCCOC(=O)Cn1c(COc2cccc(C)c2)[n+](C)c2ccccc21 | 7.35 µM |
| O=C1C(C2=C(O)c3ccccc3C2=O)=Nc2ccccc21 | 2.98 µM |
| CC(=O)Oc1ccc(/C=C2/C(=O)N(c3ccccc3)N=C2C)cc1 | 4.09 µM |
| O=C(CNC(=O)C1COc2ccccc2O1)N/N=C\c1ccccc1Cl (stereo not drawn) | > 38 µM (inactive) |
| C=C(C)CNC(=S)N=Nc1c(O)[nH]c2ccc([N+](=O)[O-])cc12 | > 38 µM (inactive) |
| [O-]C1=N/[N+](=C/c2ccccc2Cl)CC1 | > 38 µM (inactive) |
| COc1ccccc1N(C(=O)CCl)c1cn(C(C)=O)c2ccccc12 | 2.36 µM |
| CCc1ccc(N2C(=O)C(Cl)=C(N3CCOCC3)C2=O)cc1 | > 38 µM (inactive) |
| O=C1c2ccccc2-c2c1nc1c([n+]2[O-])CCCC1 | 31.3 µM |
| CC(C)OC(=O)CN1C(=O)C(=O)c2ccccc21 | 37.2 µM |
| CCCCCCCN(C(=O)CCl)c1ccccc1C | 1.89 µM |
| COc1cc(C(=O)c2nccc3cc(OC)c(OC)cc23)c([N+](=O)[O-])cc1OC | 18.3 µM |
| Cc1ccc(C(=O)n2cnc3ccccc32)cc1C | > 38 µM (inactive) |
| Clc1ccc(Sc2oc(/C=N/n3cnnc3)cc2Br)cc1 | > 38 µM (inactive) |
| C/C(=N\NC(=O)c1ccncc1)c1cc2ccccc2oc1=O | > 38 µM (inactive) |
| CC(=O)NCCn1c(SCC(=O)NCc2ccco2)nc2ccccc2c1=O | > 38 µM (inactive) |
| COc1ccc(O)c(C(c2c(C)[nH][nH]c2=O)c2c(C)[nH][nH]c2=O)c1 | 8.26 µM |
| O=C(CCN1C(=O)/C(=C/c2cccs2)SC1=S)Nc1cccc(O)c1 | > 38 µM (inactive) |
| Cc1nn(-c2ccccc2)c(Cl)c1CN(C(=O)CCl)c1ccc(Cl)cc1 | 1.28 µM |
| CCN(C(=O)CSc1ncccc1C(=O)Oc1cccc([N+](=O)[O-])c1)c1cccc(C)c1 | > 38 µM (inactive) |
| CC1=NN(c2ccc(F)cc2)C(=O)C1C(c1cccc(O)c1)c1c(C)[nH]n(-c2ccc(F)cc2)c1=O (stereo not drawn) | 2.89 µM |
| COc1ccc(NC(=O)CSc2c3c(nc4cc(Cl)ccc24)CCCC3)cc1OC | 31.7 µM |
| Cc1ccc(NC(=O)C(CC(C)C)NC(N)=O)cc1 (stereo not drawn) | > 38 µM (inactive) |
| CCN(CC)C(=O)c1ccc2c(c1[N+](=O)[O-])C(=O)c1ccccc1C2=O | > 38 µM (inactive) |
| CCCSc1nnc(Sc2nnnn2-c2ccccc2)s1 | 14.2 µM |
| CNC(=O)c1nnsc1S(=O)(=O)c1ccc(Cl)cc1 | > 38 µM (inactive) |

| Structure (SMILES) | AC50 |
| --- | --- |
| CC1CCCCC1NC(=O)NC(=O)CCl (stereo not drawn) | 39.8 µM |
| CC(C)c1[nH]nc2c1C(Cc1ccccc1)C(C#N)=C(N)O2 (stereo not drawn) | > 38 µM (inactive) |
| Cc1ccc(NC(=O)c2nc(S(=O)(=O)Cc3ccccc3)ncc2Cl)cc1 | > 38 µM (inactive) |
| Cc1ccc(S(=O)(=O)Nc2ccc(O)c3ccccc23)c(C)c1 | 0.409 µM |
| CC(NC(=O)/C(C#N)=C/c1ccc([N+](=O)[O-])o1)c1ccccc1 (stereo not drawn) | > 38 µM (inactive) |
| CN(CCC#N)C(=O)Cn1nc(Cc2ccncc2)c2ccccc2c1=O | > 38 µM (inactive) |
| COc1cc(/C=C/c2cc[n+](C)cc2)ccc1OCC(=O)Nc1ccc(Cl)c(Cl)c1 | > 38 µM (inactive) |
| COc1cc(/C=N\NC(=O)c2ccccc2F)ccc1Oc1ccc([N+](=O)[O-])cn1 | > 38 µM (inactive) |
| COc1cc(/C=N/NC(=O)c2ccc(F)cc2)ccc1OC(=O)c1ccco1 | > 38 µM (inactive) |
| O=C1CS/C(=C\[N+](=O)[O-])N1c1ccc(OC(F)(F)F)cc1 | > 38 µM (inactive) |
| CC(C)c1nnc(NC(=O)c2nc(S(=O)(=O)Cc3ccccc3F)ncc2Cl)s1 | > 38 µM (inactive) |
| CCOC(=O)c1cnc(-n2[nH]c(C)c(Cc3ccccc3)c2=O)[nH]c1=O | > 38 µM (inactive) |
| O=C(CNC1=NCCC1)c1ccc(Cl)cc1 | > 38 µM (inactive) |
| N[C@@H]1CCCC[C@H]1N.O=C(O)C(=O)O.[Pt] | > 38 µM (inactive) |
| CN1C(=O)C(Cc2ccc3c(c2)OCO3)C(=O)N(C)C1=O | > 38 µM (inactive) |
| CCOC(=O)CSc1nnc(NCC(=O)OC)c(=O)[nH]1 | > 38 µM (inactive) |
| CCOc1ccccc1C1C(C#N)=C(N)Nc2onc(-c3ccccc3)c21 (stereo not drawn) | 33.4 µM |
| CCCCCOP(=O)(OCCCCC)C1(NS(=O)(=O)c2ccccc2)C=CC(=O)c2ccccc21 (stereo not drawn) | 6.5 µM |
| CCOC(=O)C(Nc1ccc2ccccc2c1)C(=O)OCC | 38.5 µM |
| O=C(Oc1ccc(N2C(=O)C3C4CCC(C4)C3C2=O)cc1)c1ccco1 (stereo not drawn) | > 38 µM (inactive) |
| O=C(CCl)N=c1sccn1Cc1ccc(Cl)cc1Cl | 5.88 µM |
| O=C(NC(=C(Cl)Cl)S(=O)(=O)c1ccc(Cl)cc1)c1ccccc1 | 4.78 µM |
| COc1ccc(C(CCN(Cc2ccc(OC)c(OC)c2)C(=O)CCl)c2ccccc2)cc1 (stereo not drawn) | 0.613 µM |
| CCN(CC)c1ccc2oc(=O)c(C)nc2c1 | 37.2 µM |
| CN1CCN(Cc2cc(=O)oc3ccc(Cl)cc23)CC1 | > 38 µM (inactive) |
